Measurements reported in ChEMBL document CHEMBL2331095, “Synthesis and biological activity of 5-chloro-N⁴-substituted phenyl-9H-pyrimido[4,5-b]indole-2,4-diamines as vascular endothelial growth factor receptor-2 inhibitors and antiangiogenic agents” (Bioorg Med Chem, 2013).

Key:
[1] = molecular target: Platelet-derived growth factor receptor beta (Homo sapiens, UniProt P09619); test: Inhibition of PDGFRbeta in human SF539 cells assessed as inhibition of […] tyrosine phosphorylation incubated for 60 mins prior to PDGF-BB-activation measured 10 mins by ELISA
Sequence of Platelet-derived growth factor receptor beta (P09619 whole entry): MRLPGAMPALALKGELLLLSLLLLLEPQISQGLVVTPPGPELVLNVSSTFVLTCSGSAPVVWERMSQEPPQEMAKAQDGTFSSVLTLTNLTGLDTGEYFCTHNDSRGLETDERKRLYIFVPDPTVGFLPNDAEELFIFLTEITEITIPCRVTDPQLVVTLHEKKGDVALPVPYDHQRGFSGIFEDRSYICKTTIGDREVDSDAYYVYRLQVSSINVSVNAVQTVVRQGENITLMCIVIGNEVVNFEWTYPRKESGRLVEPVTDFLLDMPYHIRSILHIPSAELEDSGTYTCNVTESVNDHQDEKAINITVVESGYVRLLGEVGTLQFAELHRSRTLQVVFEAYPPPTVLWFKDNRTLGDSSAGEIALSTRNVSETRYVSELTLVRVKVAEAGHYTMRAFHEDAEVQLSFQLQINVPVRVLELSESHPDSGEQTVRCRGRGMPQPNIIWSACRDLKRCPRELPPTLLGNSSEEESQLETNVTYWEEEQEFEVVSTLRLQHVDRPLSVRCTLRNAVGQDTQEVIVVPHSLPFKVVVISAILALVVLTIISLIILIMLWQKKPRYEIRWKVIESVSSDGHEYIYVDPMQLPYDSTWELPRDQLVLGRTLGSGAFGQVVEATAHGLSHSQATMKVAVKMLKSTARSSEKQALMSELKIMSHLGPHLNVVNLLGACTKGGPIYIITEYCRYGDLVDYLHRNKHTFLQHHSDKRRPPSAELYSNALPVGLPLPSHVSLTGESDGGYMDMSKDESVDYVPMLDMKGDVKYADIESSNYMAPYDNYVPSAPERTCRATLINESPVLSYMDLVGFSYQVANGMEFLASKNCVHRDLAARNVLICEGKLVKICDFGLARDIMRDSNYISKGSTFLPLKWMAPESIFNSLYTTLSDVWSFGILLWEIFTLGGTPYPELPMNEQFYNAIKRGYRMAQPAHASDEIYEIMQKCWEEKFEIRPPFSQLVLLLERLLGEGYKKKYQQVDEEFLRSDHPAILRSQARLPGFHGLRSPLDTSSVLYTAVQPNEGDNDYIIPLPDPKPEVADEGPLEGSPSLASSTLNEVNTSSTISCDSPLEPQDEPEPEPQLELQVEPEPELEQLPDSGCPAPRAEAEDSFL

[2] = molecular target: T1, Epidermal growth factor receptor (Homo sapiens, UniProt P00533); assay type: cell-based, A-431;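 further: human A431 cells pretreated 60 min before EGF stimulation, EGF-induced tyrosine phosphorylation read by ELISA after 10 min of activation, lower signal meaning inhibition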
T1 sequence (P00533 whole entry): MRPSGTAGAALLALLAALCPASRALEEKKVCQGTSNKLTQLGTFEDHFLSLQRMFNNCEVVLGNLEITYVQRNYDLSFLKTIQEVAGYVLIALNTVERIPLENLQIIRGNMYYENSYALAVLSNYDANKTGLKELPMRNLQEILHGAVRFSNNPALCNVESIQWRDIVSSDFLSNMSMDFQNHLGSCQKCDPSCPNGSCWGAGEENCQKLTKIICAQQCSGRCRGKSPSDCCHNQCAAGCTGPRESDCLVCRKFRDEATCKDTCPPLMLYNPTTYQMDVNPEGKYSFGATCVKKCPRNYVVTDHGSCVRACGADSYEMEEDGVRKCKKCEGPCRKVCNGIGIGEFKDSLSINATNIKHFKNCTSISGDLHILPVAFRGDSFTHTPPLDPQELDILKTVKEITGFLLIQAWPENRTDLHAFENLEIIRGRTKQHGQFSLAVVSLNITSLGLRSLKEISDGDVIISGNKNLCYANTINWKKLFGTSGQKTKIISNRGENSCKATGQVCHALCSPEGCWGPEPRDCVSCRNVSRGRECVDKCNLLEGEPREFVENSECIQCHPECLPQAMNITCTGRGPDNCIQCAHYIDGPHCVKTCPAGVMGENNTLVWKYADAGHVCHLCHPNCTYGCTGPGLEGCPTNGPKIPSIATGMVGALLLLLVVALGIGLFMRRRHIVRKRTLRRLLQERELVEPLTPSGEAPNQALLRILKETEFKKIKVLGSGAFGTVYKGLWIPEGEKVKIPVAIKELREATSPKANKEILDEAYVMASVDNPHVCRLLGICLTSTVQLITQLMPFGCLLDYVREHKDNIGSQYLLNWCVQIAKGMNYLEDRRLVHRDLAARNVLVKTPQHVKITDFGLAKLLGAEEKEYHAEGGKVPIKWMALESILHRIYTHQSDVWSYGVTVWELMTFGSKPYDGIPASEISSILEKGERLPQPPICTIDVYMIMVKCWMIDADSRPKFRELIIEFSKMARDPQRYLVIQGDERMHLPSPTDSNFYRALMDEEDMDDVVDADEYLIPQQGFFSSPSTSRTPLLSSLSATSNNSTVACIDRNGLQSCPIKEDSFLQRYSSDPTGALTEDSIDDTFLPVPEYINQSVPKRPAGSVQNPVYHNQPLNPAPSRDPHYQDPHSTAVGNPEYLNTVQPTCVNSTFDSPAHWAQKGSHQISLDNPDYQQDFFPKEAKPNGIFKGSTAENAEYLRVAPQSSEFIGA

[3] = molecular target: Vascular endothelial growth factor receptor 2 (Homo sapiens, UniProt P35968); assay type: cell-based, U-251;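 further: human U251 cells, compound preincubated 60 min before VEGF stimulation, VEGF-induced VEGFR2 tyrosine phosphorylation measured by ELISA after 10 min, value is concentration inhibiting this phosphorylation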
Sequence of Vascular endothelial growth factor receptor 2 (P35968 whole entry): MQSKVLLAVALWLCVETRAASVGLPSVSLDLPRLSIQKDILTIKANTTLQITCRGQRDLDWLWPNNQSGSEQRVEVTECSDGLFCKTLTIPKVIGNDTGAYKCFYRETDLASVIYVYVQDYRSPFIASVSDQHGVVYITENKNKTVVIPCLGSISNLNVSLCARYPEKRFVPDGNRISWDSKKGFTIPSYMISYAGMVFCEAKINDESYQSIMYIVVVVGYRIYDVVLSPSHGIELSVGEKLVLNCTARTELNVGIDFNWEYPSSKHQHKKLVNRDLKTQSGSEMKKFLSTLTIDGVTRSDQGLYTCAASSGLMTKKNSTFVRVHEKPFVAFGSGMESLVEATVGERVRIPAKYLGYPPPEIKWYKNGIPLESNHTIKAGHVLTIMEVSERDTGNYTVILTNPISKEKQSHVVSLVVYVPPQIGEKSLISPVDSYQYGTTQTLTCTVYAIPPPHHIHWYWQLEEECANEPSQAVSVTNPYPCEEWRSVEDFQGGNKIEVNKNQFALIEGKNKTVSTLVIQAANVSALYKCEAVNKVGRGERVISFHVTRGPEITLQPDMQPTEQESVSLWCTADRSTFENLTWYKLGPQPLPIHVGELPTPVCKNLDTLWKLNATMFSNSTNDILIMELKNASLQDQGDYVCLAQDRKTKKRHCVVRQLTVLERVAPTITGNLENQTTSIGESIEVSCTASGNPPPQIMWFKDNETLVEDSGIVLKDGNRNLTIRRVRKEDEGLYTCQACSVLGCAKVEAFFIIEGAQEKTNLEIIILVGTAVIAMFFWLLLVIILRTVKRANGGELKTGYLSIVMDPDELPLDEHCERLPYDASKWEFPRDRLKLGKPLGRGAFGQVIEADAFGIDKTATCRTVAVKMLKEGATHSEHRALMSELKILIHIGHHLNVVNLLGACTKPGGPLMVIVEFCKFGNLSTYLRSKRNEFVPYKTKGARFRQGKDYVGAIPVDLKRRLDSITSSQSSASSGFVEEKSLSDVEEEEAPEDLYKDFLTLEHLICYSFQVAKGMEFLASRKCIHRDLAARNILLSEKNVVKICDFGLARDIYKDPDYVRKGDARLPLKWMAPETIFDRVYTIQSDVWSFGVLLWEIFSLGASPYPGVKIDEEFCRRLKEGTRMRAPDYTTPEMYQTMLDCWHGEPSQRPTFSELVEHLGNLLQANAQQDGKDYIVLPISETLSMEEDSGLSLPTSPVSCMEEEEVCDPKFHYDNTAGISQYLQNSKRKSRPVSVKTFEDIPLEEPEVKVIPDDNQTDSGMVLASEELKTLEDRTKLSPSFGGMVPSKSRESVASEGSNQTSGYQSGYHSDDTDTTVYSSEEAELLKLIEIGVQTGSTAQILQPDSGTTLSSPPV

A-431 = test: Cytotoxicity against human A431 cells incubated for 12 hrs followed by compound wash out measured 36 hrs by CYQUANT assay; assay type: functional, cell-based
[4] = molecular target: T1, Epidermal growth factor receptor; test: Ratio of sunitinib IC50 to compound IC50 for EGFR in human A431 cells; assay type: cell-based; conditions: A-431

Question: How did the IC50 [1] turn out when Nc1nc(Nc2ccccc2)c2c(n1)[nH]c1cccc(Cl)c12 was run?
Answer: The IC50 was greater than 200 µM.

Question: What about the IC50 [2] of the same compound?
Answer: Its IC50 is greater than 200 µM.

Question: What about the IC50 [3] of the same compound?
Answer: The IC50 was 124 µM.

Question: What about the IC50 (A-431) of the same compound?
Answer: Its IC50 is 193 µM.

Question: How did the IC50 [1] turn out when CC(C)c1ccc(Nc2nc(NC(=O)C(C)(C)C)nc3[nH]c4cccc(Cl)c4c23)cc1 was run?
Answer: Its IC50 is greater than 200 µM.

Question: What about the IC50 [2] of the same compound?
Answer: The IC50 was 39.2 µM.

Question: What about the IC50 [3] of the same compound?
Answer: The IC50 was 47.8 µM.

Question: What about the IC50 (A-431) of the same compound?
Answer: Its IC50 is greater than 250 µM.

Question: What does the source list for Nc1nc(Nc2cccc(F)c2)c2c(n1)[nH]c1cccc(Cl)c12?
Answer: IC50 [1]: 172 µM; IC50 [2]: > 200 µM; IC50 [3]: 86.1 µM

Question: How did the IC50 [1] turn out when CC(C)(C)C(=O)Nc1nc(Nc2cccc(F)c2)c2c(n1)[nH]c1cccc(Cl)c12 was run?
Answer: The IC50 was greater than 200 µM.

Question: What about the IC50 [2] of the same compound?
Answer: The IC50 was 30.8 µM.

Question: What about the IC50 [3] of the same compound?
Answer: The IC50 was 31.2 µM.

Question: And the Ratio IC50 [4]?
Answer: The Ratio IC50 was 5.5.

Question: What about the IC50 (A-431) of the same compound?
Answer: Its IC50 is greater than 250 µM.

Question: Which results are given for CC(C)(C)C(=O)Nc1nc(Nc2ccc(Cl)cc2F)c2c(n1)[nH]c1cccc(Cl)c12?
Answer: IC50 [1]: 171 µM; IC50 [2]: > 200 µM; IC50 [3]: 89.1 µM; IC50 (A-431): > 250 µM

Question: Which IC50 [1] does the source give for COc1cccc(Nc2nc(NC(=O)C(C)(C)C)nc3[nH]c4cccc(Cl)c4c23)c1 here?
Answer: The IC50 was 196 µM.

Question: What about the IC50 [2] of the same compound?
Answer: The IC50 was 130 µM.

Question: And the IC50 [3]?
Answer: The IC50 was 41 µM.

Question: And the IC50 (A-431)?
Answer: The IC50 was greater than 250 µM.

Question: How did the IC50 [1] turn out when Nc1nc(Nc2ccc(Cl)cc2F)c2c(n1)[nH]c1cccc(Cl)c12 was run?
Answer: The IC50 was greater than 200 µM.

Question: Which results are given for COc1cccc(Nc2nc(N)nc3[nH]c4cccc(Cl)c4c23)c1?
Answer: IC50 [1]: 50.5 µM; IC50 [2]: 82.9 µM; IC50 [3]: 70.1 µM; Ratio IC50 [4]: 2.1

Question: With CC(C)c1ccc(Nc2nc(N)nc3[nH]c4cccc(Cl)c4c23)cc1 as the compound, how does the IC50 [1] read?
Answer: The IC50 was greater than 200 µM.

Question: What about the IC50 [3] of the same compound?
Answer: Its IC50 is 30.3 µM.

Question: What does the source list for CC(C)(C)C(=O)Nc1nc(Nc2ccccc2)c2c(n1)[nH]c1cccc(Cl)c12?
Answer: IC50 [1]: 70.6 µM; IC50 [2]: 115 µM; IC50 [3]: 192 µM

Question: For Nc1nc(Nc2ccc(Cl)cc2)c2c(n1)[nH]c1cccc(Cl)c12, which IC50 [1] is on record?
Answer: The IC50 was 196 µM.

Question: And the IC50 [2]?
Answer: The IC50 was 63.6 µM.

Question: And the IC50 [3]?
Answer: The IC50 was 13.2 µM.

Question: How did the IC50 [1] turn out when CC(C)(C)C(=O)Nc1nc(Nc2ccc(Cl)cc2)c2c(n1)[nH]c1cccc(Cl)c12 was run?
Answer: The IC50 was greater than 200 µM.

Question: What about the IC50 [2] of the same compound?
Answer: Its IC50 is 58.7 µM.

Question: And the IC50 [3]?
Answer: Its IC50 is 21.3 µM.
